Measurements as given in patent US11596639B2, “Substituted indole Mcl-1 inhibitors” (Vanderbilt University, priority 2016, dated 2023).
Read-outs that look alike come from different tables or passages of the source.

How the values were obtained:
Mcl-1 = Mcl-1 (Homo sapiens (Human), UniProt Q07820); experiment: TR-FRET binding assay, FITC-Bak peptide and MBP-tagged Mcl-1; settings: read-out: Ki for Inhibition of Mcl-1 by TR-FRET assay
Method: Compounds are diluted in DMSO in a 16-point, semilog serial dilution scheme. […] The plate was mixed and incubated for 3 hours at room temperature. […] TR-FRET signal is plotted and IC50 and Ki values are calculated in the same manner as the fluorescence polarization anisotropy based competition assays.

[1] = system: H929 human cancer cell lines; experiment: Cellular viability / proliferation (Cell TiterGlo, 72 h); type: cell-based
In short: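 Plating is at 1,000 cells/well in 10% FBS medium; after 24 h, compound is added as a 2-fold series starting at 50 μM with under 1% DMSO.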

[2] = Homo sapiens, NCI-H929, 72 h, read-out: GI50 on cellular proliferation of H929 human cancer cell lines, H929 cells, 72 h, Cell TiterGlo, 10% FBS

Chain of Mcl-1 (Q07820 172-327): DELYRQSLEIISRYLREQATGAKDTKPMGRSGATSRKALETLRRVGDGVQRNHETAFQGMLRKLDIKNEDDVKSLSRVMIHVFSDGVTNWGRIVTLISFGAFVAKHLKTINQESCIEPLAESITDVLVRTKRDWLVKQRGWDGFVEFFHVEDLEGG

Q: Which Ki (Mcl-1) does the source give for `Cc1cc(OCCCc2c3n(c4c(-c5c(C)nc(CN6CCN(C)CC6)nc5C)c(Cl)ccc24)[C@H](C)CN(c2cn(CCN(C)C)c4ccc(C(=O)O)cc24)C3=O)cc(C)c1Cl` [Example 580, (R)-3-(7-chloro-10-(3-(4-chloro-3,5-dimethylphenoxy)propyl)-6-(4,6-dimethyl-2-((4-methylpiperazin-1-yl)methyl)pyrimidin-5-yl)-4-methyl-1-oxo-3,4-dihydropyrazino[1,2-a]indol-2(1H)-yl)-1-(2-(dimethylamino)ethyl)-1H-indole-5-carboxylic acid] here?
A: < 0.2 nM

Q: What about the GI50 [1, 2] of the same molecule?
A: 960 nM

Q: What does the source list for `Cc1cc(OCCCc2c3n(c4c(-c5c(C)nn(C)c5C)c(Cl)ccc24)[C@H](C)CN(c2cn(C[C@@H]4CCCN4C)c4ccc(C(=O)O)cc24)C3=O)cc(C)c1Cl` [Example 690, 3-((R)-7-chloro-10-(3-(4-chloro-3,5-dimethylphenoxy)propyl)-4-methyl-1-oxo-6-(1,3,5-trimethyl-1H-pyrazol-4-yl)-3,4-dihydropyrazino[1,2-a]indol-2(1H)-yl)-1-(((S)-1-methylpyrrolidin-2-yl)methyl)-1H-indole-5-carboxylic acid]?
A: Ki (Mcl-1): 0.26 nM; GI50 [1, 2]: 330 nM

Q: How did the Ki (Mcl-1) turn out when `COCCn1c(C(=O)O)cc2c(OC)ccc(N3C[C@@H](C)n4c(c(CCCOc5cc(C)c(Cl)c(C)c5)c5ccc(Cl)c(-c6c(C)n[nH]c6C)c54)C3=O)c21` [Example 728, (R)-7-(7-chloro-10-(3-(4-chloro-3,5-dimethylphenoxy)propyl)-6-(3,5-dimethyl-1H-pyrazol-4-yl)-4-methyl-1-oxo-3,4-dihydropyrazino[1,2-a]indol-2(1H)-yl)-4-methoxy-1-(2-methoxyethyl)-1H-indole-2-carboxylic acid] was run?
A: < 0.2 nM

Q: What about the GI50 [1, 2] of the same molecule?
A: 710 nM

Q: For `Cc1cc(OCCCc2c3n(c4c(-c5c(C)nn(C)c5C)c(Cl)ccc24)[C@H](C)CN(c2cn(C)c4ccc(-n5ccnn5)cc24)C3=O)cc(C)c1Cl` [Example 668, (R)-7-Chloro-10-(3-(4-chloro-3,5-dimethylphenoxy)propyl)-4-methyl-2-(1-methyl-5-(1H-1,2,3-triazol-1-yl)-1H-indol-3-yl)-6-(1,3,5-trimethyl-1H-pyrazol-4-yl)-3,4-dihydropyrazino[1,2-a]indol-1(2H)-one], which Ki (Mcl-1) is on record?
A: 7.6 nM

Q: What about the GI50 [1, 2] of the same molecule?
A: 1500 nM

Q: Which results are given for `COCCCn1c(C(=O)O)cc2cc(C)cc(N3C[C@@H](C)n4c(c(CCCOc5cc(C)c(Cl)c(C)c5)c5ccc(Cl)c(-c6c(C)nn(C)c6C)c54)C3=O)c21` [Example 686, (R)-7-(7-chloro-10-(3-(4-chloro-3,5-dimethylphenoxy)propyl)-4-methyl-1-oxo-6-(1,3,5-trimethyl-1H-pyrazol-4-yl)-3,4-dihydropyrazino[1,2-a]indol-2(1H)-yl)-1-(3-methoxypropyl)-5-methyl-1H-indole-2-carboxylic acid]?
A: Ki (Mcl-1): < 0.2 nM; GI50 [1, 2]: 520 nM

Q: How did the Ki (Mcl-1) turn out when `COCc1cccn2nc(-c3ccc4c(c3)c(N3C[C@@H](C)n5c(c(CCCOc6cc(C)c(Cl)c(C)c6)c6ccc(Cl)c(-c7c(C)nn(C)c7C)c65)C3=O)cn4C)nc12` [Example 695, (R)-7-Chloro-10-(3-(4-chloro-3,5-dimethylphenoxy)propyl)-2-(5-(8-(methoxymethyl)-[1,2,4]triazolo[1,5-a]pyridin-2-yl)-1-methyl-1H-indol-3-yl)-4-methyl-6-(1,3,5-trimethyl-1H-pyrazol-4-yl)-3,4-dihydropyrazino[1,2-a]indol-1(2H)-one] was run?
A: 0.57 nM

Q: What about the GI50 [1, 2] of the same molecule?
A: 280 nM

Q: What does the source list for `Cc1cc(OCCCc2c3n(c4c(-c5c(C)nn(C)c5C)c(Cl)ccc24)[C@H](C)CN(c2cn(C)c4ncc(C(=O)O)cc24)C3=O)cc(C)c1Cl` [Example 575, (R)-3-(7-chloro-10-(3-(4-chloro-3,5-dimethylphenoxy)propyl)-4-methyl-1-oxo-6-(1,3,5-trimethyl-1H-pyrazol-4-yl)-3,4-dihydropyrazino[1,2-a]indol-2(1H)-yl)-1-methyl-1H-pyrrolo[2,3-b]pyridine-5-carboxylic acid]?
A: Ki (Mcl-1): < 0.2 nM; GI50 [1, 2]: 740 nM

Q: Which Ki (Mcl-1) does the source give for `COc1cc(N2C[C@@H](C)n3c(c(CCCOc4cc(C)c(Cl)c(C)c4)c4ccc(Cl)c(-c5c(C)nn(C)c5C)c43)C2=O)c2c(c1)cc(C(=O)O)n2Cc1ccccn1` [Example 538, (R)-7-(7-Chloro-10-(3-(4-chloro-3,5-dimethylphenoxy)propyl)-4-methyl-1-oxo-6-(1,3,5-trimethyl-1H-pyrazol-4-yl)-3,4-dihydropyrazino[1,2-a]indol-2(1H)-yl)-5-methoxy-1-(pyridin-2-ylmethyl)-1H-indole-2-carboxylic acid] here?
A: < 0.2 nM

Q: What about the GI50 [1, 2] of the same molecule?
A: < 200 nM

Q: How did the Ki (Mcl-1) turn out when `Cc1cc(OCCCc2c3n(c4c(-c5c(C)nn(C)c5C)c(Cl)ccc24)[C@H](C)CN(c2cc(CO)cc4c(C(=O)O)cn(C)c24)C3=O)cc(C)c1Cl` [Example 506, (R)-7-(7-Chloro-10-(3-(4-chloro-3,5-dimethylphenoxy)propyl)-4-methyl-1-oxo-6-(1,3,5-trimethyl-1H-pyrazol-4-yl)-3,4-dihydropyrazino[1,2-a]indol-2(1H)-yl)-5-(hydroxymethyl)-1-methyl-1H-indole-3-carboxylic acid] was run?
A: < 0.2 nM

Q: And the GI50 [1, 2]?
A: 1300 nM

Q: How did the Ki (Mcl-1) turn out when `Cc1cc(OCCCc2c3n(c4c(-c5c(C)nn(C)c5C)c(Cl)ccc24)[C@H](C)CN(c2cc(CCN4CCN(C)CC4)cc4cc(C(=O)O)n(C)c24)C3=O)cc(C)c1Cl` [Example 725, (R)-7-(7-chloro-10-(3-(4-chloro-3,5-dimethylphenoxy)propyl)-4-methyl-1-oxo-6-(1,3,5-trimethyl-1H-pyrazol-4-yl)-3,4-dihydropyrazino[1,2-a]indol-2(1H)-yl)-1-methyl-5-(2-(4-methylpiperazin-1-yl)ethyl)-1H-indole-2-carboxylic acid] was run?
A: < 0.2 nM

Q: What about the GI50 [1, 2] of the same molecule?
A: < 200 nM

Q: How did the Ki (Mcl-1) turn out when `Cc1cc(OCCCc2c3n(c4c(-c5c(C)nn(C)c5C)c(Cl)ccc24)[C@H](C)CN(c2cc(CN4CCCC4)cc4c(C(=O)O)cn(C)c24)C3=O)cc(C)c1Cl` [Example 550, (R)-7-(7-chloro-10-(3-(4-chloro-3,5-dimethylphenoxy)propyl)-4-methyl-t-oxo-6-(1,3,5-trimethyl-1H-pyrazol-4-yl)-3,4-dihydropyrazino[1,2-a]indol-2(1H)-yl)-1-methyl-5-(pyrrolidin-1-ylmethyl)-1H-indole-3-carboxylic acid] was run?
A: 0.52 nM

Q: And the GI50 ([1]; H929 cells, 72 h, Cell TiterGlo, 10% FBS, read-out: GI50 on cellular proliferation of H929 human cancer cell lines)?
A: 1200 nM

Q: With `Cc1cc(OCCCc2c3n(c4c(-c5c(C)nn(C)c5C)c(Cl)ccc24)[C@H](C)CN(c2cc(OCc4ccccn4)cc4cc(C(=O)O)n(C)c24)C3=O)cc(C)c1Cl` [Example 481, (R)-7-(7-Chloro-10-(3-(4-chloro-3,5-dimethylphenoxy)propyl)-4-methyl-1-oxo-6-(1,3,5-trimethyl-1H-pyrazol-4-yl)-3,4-dihydropyrazino[1,2-a]indol-2(1H)-yl)-1-methyl-5-(pyridin-2-ylmethoxy)-1H-indole-2-carboxylic acid] as the molecule, how does the Ki (Mcl-1) read?
A: < 0.2 nM

Q: And the GI50 [1, 2]?
A: 240 nM

Q: For `Cc1cc(OCCCc2c3n(c4c(-c5c(C)nn(C)c5C)c(Cl)ccc24)[C@H](C)CN(c2cn(CCN4CCCC4)c4ccc(-c5ncccn5)cc24)C3=O)cc(C)c1Cl` [Example 567, (R)-7-Chloro-10-(3-(4-chloro-3,5-dimethylphenoxy)propyl)-4-methyl-2-(5-(pyrimidin-2-yl)-1-(2-(pyrrolidin-1-yl)ethyl)-1H-indol-3-yl)-6-(1,3,5-trimethyl-1H-pyrazol-4-yl)-3,4-dihydropyrazino[1,2-a]indol-1(2H)-one], which Ki (Mcl-1) is on record?
A: 9.6 nM

Q: What about the GI50 [1, 2] of the same molecule?
A: 930 nM

Q: What does the source list for `Cc1cc(OCCCc2c3n(c4c(-c5c(C)nn(C)c5C)c(Cl)ccc24)[C@H](C)CN(c2cccc4c(C(=O)O)c5n(c24)CCN(C)C5=O)C3=O)cc(C)c1Cl` [Example 562, (R)-7-chloro-10-(3-(4-chloro-3,5-dimethylphenoxy)propyl)-2′,4-dimethyl-1,1′-dioxo-6-(1,3,5-trimethyl-1H-pyrazol-4-yl)-1′,2′,3,3′,4,4′-hexahydro-1H-[2,6′-bipyrazino[1,2-a]indole]-10′-carboxylic acid]?
A: Ki (Mcl-1): 0.97 nM; GI50 [1, 2]: 1200 nM

Q: What does the source list for `Cc1cc(OCCCc2c3n(c4c(-c5c(C)nn(C)c5C)c(Cl)ccc24)[C@H](C)CN(c2cn(C)c4ccc(-n5ncnn5)cc24)C3=O)cc(C)c1Cl` [Example 689, (R)-7-Chloro-10-(3-(4-chloro-3,5-dimethylphenoxy)propyl)-4-methyl-2-(1-methyl-5-(2H-tetrazol-2-yl)-1H-indol-3-yl)-6-(1,3,5-trimethyl-1H-pyrazol-4-yl)-3,4-dihydropyrazino[1,2-a]indol-1(2H)-one]?
A: Ki (Mcl-1): 2.1 nM; GI50 [1, 2]: 1700 nM

Q: `Cc1cc(OCCCc2c3n(c4c(-c5c(C)nn(C)c5C)c(Cl)ccc24)[C@H](C)CN(c2cn(C)c4ccc(-c5ncn(-c6ncccn6)n5)cc24)C3=O)cc(C)c1Cl` [Example 646, (R)-7-Chloro-10-(3-(4-chloro-3,5-dimethylphenoxy)propyl)-4-methyl-2-(1-methyl-5-(1-(pyrimidin-2-yl)-1H-1,2,4-triazol-3-yl)-1H-indol-3-yl)-6-(1,3,5-trimethyl-1H-pyrazol-4-yl)-3,4-dihydropyrazino[1,2-a]indol-1(2H)-one] was tested. Which Ki (Mcl-1) did it give?
A: 0.3 nM

Q: What about the GI50 [1, 2] of the same molecule?
A: 240 nM

Q: Which results are given for `Cc1cc(OCCCc2c3n(c4c(-c5c(C)nn(C)c5C)c(Cl)ccc24)[C@H](C)CN(c2cc(C(=O)O)nc4ccccc24)C3=O)cc(C)c1Cl` [Example 669, (R)-4-(7-chloro-10-(3-(4-chloro-3,5-dimethylphenoxy)propyl)-4-methyl-1-oxo-6-(1,3,5-trimethyl-1H-pyrazol-4-yl)-3,4-dihydropyrazino[1,2-a]indol-2(1H)-yl)quinoline-2-carboxylic acid]?
A: Ki (Mcl-1): 1 nM; GI50 [1, 2]: 7600 nM
